Read-outs that look alike come from different tables or passages of the source.
How the values were obtained:
[1] = tested on: A2780 (ovarian carcinoma); test: SRB cytotoxicity assay, 72 h; type: cell-based, human; conditions: Homo sapiens; A2780, 72 h, cut-off 30 µM; read-out: EC50
In short: (§1)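 Seed, 24 h; compound 0–30 µM serial dilutions, 72 h (DMSO ≤0.5%); fix 10% TCA, 4 °C; stain 0.4% SRB ~20 min; 1% AcOH wash; solubilise 10 mM Tris; A570. EC50 vs untreated.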

[2] = tested on: A375 (malignant melanoma); test: SRB cytotoxicity assay, 72 h; type: cell-based, human; conditions: Homo sapiens, A-375, 72 h, A375, 72 h, cut-off 30 µM; read-out: EC50
In short: as §1

[3] = tested on: FaDu (hypopharyngeal carcinoma); test: SRB cytotoxicity assay, 72 h; type: cell-based, human; conditions: Homo sapiens, cut-off 30 µM, read-out: EC50
In short: as §1

[4] = tested on: HT29 (colorectal carcinoma); test: SRB cytotoxicity assay, 72 h; type: cell-based, human; conditions: Homo sapiens, HT-29; HT29, 72 h, cut-off 30 µM; read-out: EC50
In short: as §1

MCF-7 (breast carcinoma) = test: SRB cytotoxicity assay, 72 h; type: cell-based, human; conditions: Homo sapiens, MCF7; MCF-7, 72 h, cut-off 30 µM; read-out: EC50
In short: as §1

[5] = tested on: NIH 3T3 (non-malignant mouse fibroblasts); test: SRB cytotoxicity assay, 72 h; type: cell-based; conditions: Mus musculus, NIH3T3; NIH 3T3, 72 h, cut-off 30 µM; read-out: EC50
In short: as §1

CNS cancer subpanel = test: NCI-60 screen, subpanel; conditions: Homo sapiens
Ovarian Cancer subpanel = test: NCI-60 screen, subpanel; conditions: Homo sapiens
[6] = tested on: A549/ATCC (NSC lung cancer); test: NCI-60 screen (SRB, 48 h); conditions: Homo sapiens
[7] = tested on: NCI-H23 (NSC lung cancer); test: NCI-60 screen (SRB, 48 h); conditions: Homo sapiens
[8] = tested on: NCI-H322M (NSC lung cancer); test: NCI-60 screen (SRB, 48 h); conditions: Homo sapiens
SW-620 (Colon cancer) = test: NCI-60 screen (SRB, 48 h); conditions: Homo sapiens
SF-268 (CNS cancer) = test: NCI-60 screen (SRB, 48 h); conditions: Homo sapiens
SF-539 (CNS cancer) = test: NCI-60 screen (SRB, 48 h); conditions: Homo sapiens
M14 (Melanoma) = test: NCI-60 screen (SRB, 48 h); conditions: Homo sapiens
UACC-62 (Melanoma) = test: NCI-60 screen (SRB, 48 h); conditions: Homo sapiens
OVCAR-8 (Ovarian cancer) = test: NCI-60 screen (SRB, 48 h); conditions: Homo sapiens
ACHN (Renal cancer) = test: NCI-60 screen (SRB, 48 h); conditions: Homo sapiens
CAKI-1 (Renal cancer) = test: NCI-60 screen (SRB, 48 h); conditions: Homo sapiens
SN12C (Renal cancer) = test: NCI-60 screen (SRB, 48 h); conditions: Homo sapiens
TK-10 (Renal cancer) = test: NCI-60 screen (SRB, 48 h); conditions: Homo sapiens
PC-3 (Prostate cancer) = test: NCI-60 screen (SRB, 48 h); conditions: Homo sapiens
HS 578T (Breast cancer) = test: NCI-60 screen (SRB, 48 h); conditions: Homo sapiens
[9] = tested on: panel of approximately 60 cancer cell lines; test: NCI-60 screen (SRB, 48 h), full panel

C=C(C)[C@@H]1CC[C@]2(C)[C@H](CC=C3[C@@H]4[C@@H](C)[C@H](C)CC[C@]4(CO)CC[C@]32C)[C@@]1(C)CCCN [Compound 19]
EC50 [1]: 3.3 ± 0.2 µM | EC50 [2]: 2.97 ± 0.2 µM | EC50 [3]: 2.95 ± 0.4 µM | EC50 [4]: 1.84 ± 0.2 µM | EC50 (MCF-7 (breast carcinoma)): 2.05 ± 0.2 µM | EC50 [5]: 4.64 ± 0.6 µM | IC (TGI) (CNS cancer subpanel; 48 h, read-out: TGI MG_MID): 3.26 µM | GI50 (CNS cancer subpanel; read-out: GI50 MG_MID): 1.15 µM | CC50 (CNS cancer subpanel; read-out: LC50 MG_MID): 12.6 µM | IC (TGI) (Ovarian Cancer subpanel; 48 h, read-out: TGI MG_MID): 4.2 µM | GI50 (Ovarian Cancer subpanel; read-out: GI50 MG_MID): 1.57 µM | CC50 (Ovarian Cancer subpanel; read-out: LC50 MG_MID): 19.7 µM | GI50 ([6]; A549): 1.59 µM | IC (TGI) ([6]; A549, 48 h, read-out: TGI): 5.11 µM | CC50 ([6]; A549, read-out: LC50): > 50 µM | GI50 ([7]; NCI-H23): 1.34 µM | IC (TGI) ([7]; NCI-H23, 48 h, read-out: TGI): 4 µM | CC50 ([7]; NCI-H23, read-out: LC50): 17.5 µM | GI50 [8]: 1.74 µM | IC (TGI) ([8]; 48 h, read-out: TGI): 6.38 µM | CC50 ([8]; read-out: LC50): 18.6 µM | GI50 (SW-620 (Colon cancer); SW-620): 1.01 µM | IC (TGI) (SW-620 (Colon cancer); SW-620, 48 h, read-out: TGI): 2.11 µM | CC50 (SW-620 (Colon cancer); SW-620, read-out: LC50): 4.39 µM | GI50 (SF-268 (CNS cancer); SF-268): 1.22 µM | IC (TGI) (SF-268 (CNS cancer); SF-268, 48 h, read-out: TGI): 2.69 µM | CC50 (SF-268 (CNS cancer); SF-268, read-out: LC50): 14.8 µM | GI50 (SF-539 (CNS cancer); SF-539): 0.95 µM | IC (TGI) (SF-539 (CNS cancer); SF-539, 48 h, read-out: TGI): 1.73 µM | CC50 (SF-539 (CNS cancer); SF-539, read-out: LC50): 3.17 µM | GI50 (M14 (Melanoma); M14): 0.85 µM | IC (TGI) (M14 (Melanoma); M14, 48 h, read-out: TGI): 1.76 µM | CC50 (M14 (Melanoma); M14, read-out: LC50): 3.64 µM | GI50 (UACC-62 (Melanoma); UACC-62): 5.82 µM | IC (TGI) (UACC-62 (Melanoma); UACC-62, 48 h, read-out: TGI): 12.6 µM | CC50 (UACC-62 (Melanoma); UACC-62, read-out: LC50): 27.3 µM | GI50 (OVCAR-8 (Ovarian cancer); OVCAR-8): 1.16 µM | IC (TGI) (OVCAR-8 (Ovarian cancer); OVCAR-8, 48 h, read-out: TGI): 2.8 µM | CC50 (OVCAR-8 (Ovarian cancer); OVCAR-8, read-out: LC50): > 50 µM | GI50 (ACHN (Renal cancer)): 1.42 µM | IC (TGI) (ACHN (Renal cancer); 48 h, read-out: TGI): 3.4 µM | CC50 (ACHN (Renal cancer); read-out: LC50): 17 µM | GI50 (CAKI-1 (Renal cancer); CAKI-1): 1.69 µM | IC (TGI) (CAKI-1 (Renal cancer); CAKI-1, 48 h, read-out: TGI): 5.58 µM | CC50 (CAKI-1 (Renal cancer); CAKI-1, read-out: LC50): 17.9 µM | GI50 (SN12C (Renal cancer)): 0.84 µM | IC (TGI) (SN12C (Renal cancer); 48 h, read-out: TGI): 1.67 µM | CC50 (SN12C (Renal cancer); read-out: LC50): 3.34 µM | GI50 (TK-10 (Renal cancer); TK-10): 2.21 µM | IC (TGI) (TK-10 (Renal cancer); TK-10, 48 h, read-out: TGI): 9.75 µM | CC50 (TK-10 (Renal cancer); TK-10, read-out: LC50): 24.6 µM | GI50 (PC-3 (Prostate cancer); PC-3): 1.65 µM | IC (TGI) (PC-3 (Prostate cancer); PC-3, 48 h, read-out: TGI): 7.48 µM | CC50 (PC-3 (Prostate cancer); PC-3, read-out: LC50): 26 µM | GI50 (HS 578T (Breast cancer)): 0.99 µM | IC (TGI) (HS 578T (Breast cancer); 48 h, read-out: TGI): 2.23 µM | CC50 (HS 578T (Breast cancer); read-out: LC50): 5 µM | Positive Cytostatic Effect (cell lines with percent growth 0 to 50 / total) ([9]; 1 dose 10 µM): 20/60 | Positive Cytotoxic Effect (cell lines with percent growth < 0 / total) ([9]; 1 dose 10 µM): 28/60 | number of cancer cell lines the compound was active against ([9]; 1 dose 10 µM): 45 cell lines | activity at 10 µM ([9]; Homo sapiens, 48 h, read-out: Mean Growth, %): -4.29% | activity at 10 µM ([9]; Homo sapiens, 48 h, read-out: Range of Growth, %): -99 to 84.5% | IC (TGI) ([9]; Homo sapiens, 48 h, read-out: TGI MG_MID60, average over all cell lines): 3.89 µM | GI50 ([9]; Homo sapiens, read-out: GI50 MG_MID60): 1.42 µM | GI50 ([9]; Homo sapiens, read-out: GI50 against all human tumor cell lines): < 10 µM | GI50 ([9]; Homo sapiens, read-out: GI50 against the most sensitive cell lines): 0.2 to 0.94 µM | CC50 ([9]; Homo sapiens, read-out: LC50 MG_MID60, average over all cell lines): 17 µM

— PMC7914897, “Cytotoxic Potential of a-Azepano- and 3-Amino-3,4-SeCo-Triterpenoids” (International Journal of Molecular Sciences, 2021)
